Experiments:
rat [1] = conditions: Combined chronic toxicity/carcinogenicity, fischer, Oral, Feed, dose end: 2 year
mouse [2] = conditions: Prenatal developmental toxicity study, cd1, Oral, Gavage/Intubation, dose end: 17 GD
mouse [3] = conditions: Prenatal developmental toxicity study, cd1, Oral, Gavage/Intubation, dose end: 17 GD; remark: listed apart in the source
mouse [4] = conditions: Carcinogenicity, cd1, Oral, Feed, dose end: 78 week
rat [5] = conditions: Multigenerational reproductive toxicity study, wistar, Oral, Feed, dose end: 2 generation
rat [6] = conditions: Multigenerational reproductive toxicity study, sprague dawley, Oral, Gavage/Intubation, dose end: 2 generation
rat [7] = conditions: Prenatal developmental toxicity study, other, Oral, Gavage/Intubation, dose end: 19 GD
[8] = group: cholinesterase, cholinesterase / cholinesterase / cholinesterase / erythrocyte cholinesterase (che)
[9] = group: systemic, systemic / pathology microscopic / stomach / mineralization + systemic / in life observation / body weight / body weight + systemic / in …
[10] = group: developmental, systemic / in life observation / body weight / fetal weight
[11] = group: maternal, reproductive / reproductive performance / postimplantation loss / postimplantation loss + systemic / in life observation / body weight / …
[12] = group: developmental, developmental / developmental malformation / bone / supernumerary + systemic / in life observation / body weight / fetal weight
[13] = group: maternal, systemic / in life observation / body weight / body weight + systemic / in life observation / body weight / body weight gain + systemic / …
[14] = group: cholinesterase, cholinesterase / cholinesterase / cholinesterase / brain cholinesterase (che) + cholinesterase / cholinesterase / cholinesterase / …
[15] = group: systemic, systemic / in life observation / body weight / body weight + systemic / in life observation / body weight / body weight gain + systemic / in…
[16] = group: offspring, developmental / developmental landmark / preputial separation / preputial separation + systemic / in life observation / body weight / …
[17] = group: parental, systemic / pathology gross / eye / opacity + systemic / pathology microscopic / eye / inflammation + systemic / pathology microscopic / eye…
[18] = group: reproductive, reproductive / reproductive performance / estrous cycle / abnormal + reproductive / reproductive performance / estrous cycle / corpora lutea
[19] = group: offspring, developmental / offspring survival late / viability index / viability index + systemic / in life observation / body weight / offspring (pup…
[20] = group: parental, systemic / pathology microscopic / liver / hypertrophy + systemic / pathology microscopic / kidney / regeneration + systemic / organ weight…
[21] = group: parental, systemic / pathology microscopic / liver / hypertrophy + systemic / pathology microscopic / kidney / regeneration + systemic / pathology …
[22] = group: developmental, developmental / developmental malformation / bone / [other] + developmental / developmental malformation / bone / bipartite ossification + …
[23] = group: maternal, systemic / in life observation / body weight / body weight gain + systemic / in life observation / food consumption / food efficiency

**Q.** Which results are given for `CCOC(=O)CC(SP(=O)(OC)OC)C(=O)OCC` (stereo not given) [Malaoxon]?
**A.** LEL (rat [1]; [8]): 1 mg/kg/day; LOAEL (rat [1]; [8]): 1 mg/kg/day; NEL (rat [1]; [8]): < 1 mg/kg/day; NOAEL (rat [1]; [8]): < 1 mg/kg/day; LOAEL (rat [1]; group: systemic, systemic / pathology microscopic / stomach / mineralization): 57 mg/kg/day; NEL (rat [1]; [9]): 1 mg/kg/day; NOAEL (rat [1]; [9]): 1 mg/kg/day; LEL (rat [1]; group: systemic, systemic / pathology microscopic / stomach / mineralization + systemic / in life observation / food consumption / food consumption): 57 mg/kg/day

**Q.** Which LEL (mouse [2]; [10]) does the source give for `C=C(C)C(N)=O` [Methacrylamide] here?
**A.** 120 mg/kg/day

**Q.** What about the LOAEL (mouse [2]; [10]) of the same compound?
**A.** > 180 mg/kg/day

**Q.** What about the NEL (mouse [2]; [10]) of the same compound?
**A.** 60 mg/kg/day

**Q.** And the NOAEL (mouse [2]; [10])?
**A.** ≥ 180 mg/kg/day

**Q.** And the LOAEL (mouse [2]; [11])?
**A.** > 180 mg/kg/day

**Q.** What about the NEL (mouse [2]; [11]) of the same compound?
**A.** 60 mg/kg/day

**Q.** And the NOAEL (mouse [2]; [11])?
**A.** ≥ 180 mg/kg/day

**Q.** What about the LEL (mouse [2]; group: maternal, systemic / organ weight / liver / relative to body weight) of the same compound?
**A.** 120 mg/kg/day

**Q.** What does the source list for `C=CC(=O)NCNC(=O)C=C` [N,N'-Methylenebisacrylamide]?
**A.** LEL (mouse [3]; group: developmental, developmental / developmental malformation / bone / supernumerary): 10 mg/kg/day; LOAEL (mouse [3]; [12]): > 30 mg/kg/day; NEL (mouse [3]; [12]): 3 mg/kg/day; NOAEL (mouse [3]; [12]): ≥ 30 mg/kg/day; LOAEL (mouse [3]; [13]): > 30 mg/kg/day; NEL (mouse [3]; [13]): 3 mg/kg/day; NOAEL (mouse [3]; [13]): ≥ 30 mg/kg/day; LEL (mouse [3]; group: maternal, systemic / in life observation / body weight / body weight + systemic / organ weight / liver / relative to body weight + systemic / organ …): 10 mg/kg/day

**Q.** How did the LEL (mouse [4]; [14]) turn out when `CCN(CC)c1nc(C)cc(OP(=S)(OC)OC)n1` [Pirimiphos-methyl] was run?
**A.** 8.3 mg/kg/day

**Q.** And the LOAEL (mouse [4]; [14])?
**A.** 8.3 mg/kg/day

**Q.** What about the NEL (mouse [4]; [14]) of the same compound?
**A.** < 8.3 mg/kg/day

**Q.** What about the NOAEL (mouse [4]; [14]) of the same compound?
**A.** < 8.3 mg/kg/day

**Q.** And the LEL (mouse [4]; [15])?
**A.** 33 mg/kg/day

**Q.** And the LOAEL (mouse [4]; [15])?
**A.** 33 mg/kg/day

**Q.** What about the NEL (mouse [4]; [15]) of the same compound?
**A.** 8.3 mg/kg/day

**Q.** And the NOAEL (mouse [4]; [15])?
**A.** 8.3 mg/kg/day

**Q.** What does the source list for `CS(=O)(=O)c1ccc(C(=O)C2C(=O)CCCC2=O)c(Cl)c1COCC(F)(F)F` [Tembotrione]?
**A.** LEL (rat [5]; [16]): 1.3 mg/kg/day; LOAEL (rat [5]; [16]): 1.3 mg/kg/day; NEL (rat [5]; [16]): < 1.3 mg/kg/day; NOAEL (rat [5]; [16]): < 1.3 mg/kg/day; LEL (rat [5]; [17]): 1.3 mg/kg/day; LOAEL (rat [5]; [17]): 1.3 mg/kg/day; NEL (rat [5]; [17]): < 1.3 mg/kg/day; NOAEL (rat [5]; [17]): < 1.3 mg/kg/day; LEL (rat [5]; [18]): 123 mg/kg/day; LOAEL (rat [5]; [18]): 123 mg/kg/day; NEL (rat [5]; [18]): 16.2 mg/kg/day; NOAEL (rat [5]; [18]): 16.2 mg/kg/day

**Q.** Which LEL (rat [6]; [19]) does the source give for `CCN(CC)C(=O)SCc1ccc(Cl)cc1` [Thiobencarb] here?
**A.** 100 mg/kg/day

**Q.** What about the LOAEL (rat [6]; [19]) of the same compound?
**A.** > 100 mg/kg/day

**Q.** And the NEL (rat [6]; [19])?
**A.** 20 mg/kg/day

**Q.** What about the NOAEL (rat [6]; [19]) of the same compound?
**A.** ≥ 100 mg/kg/day

**Q.** What about the LEL (rat [6]; [20]) of the same compound?
**A.** 2 mg/kg/day

**Q.** What about the NEL (rat [6]; [20]) of the same compound?
**A.** < 2 mg/kg/day

**Q.** And the LOAEL (rat [6]; [21])?
**A.** 2 mg/kg/day

**Q.** And the NOAEL (rat [6]; [21])?
**A.** < 2 mg/kg/day

**Q.** And the LEL (rat [7]; [22])?
**A.** 150 mg/kg/day

**Q.** And the LOAEL (rat [7]; [22])?
**A.** 150 mg/kg/day

**Q.** And the NEL (rat [7]; [22])?
**A.** 25 mg/kg/day

**Q.** What about the NOAEL (rat [7]; [22]) of the same compound?
**A.** 25 mg/kg/day

**Q.** What about the LEL (rat [7]; [23]) of the same compound?
**A.** 150 mg/kg/day

**Q.** What about the LOAEL (rat [7]; [23]) of the same compound?
**A.** 150 mg/kg/day

**Q.** What about the NEL (rat [7]; [23]) of the same compound?
**A.** 25 mg/kg/day

**Q.** What about the NOAEL (rat [7]; [23]) of the same compound?
**A.** 25 mg/kg/day

Source: EPA's ToxRefDB 2
